PubChem BioAssay (NCI)
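Interpolation was linear, between the two tested concentrations surrounding the appropriate level; five concentrations were tested over 48 hours in 96-well plates. GI50 is the concentration that inhibits growth by half. TGI is the concentration that stops growth completely.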

Columns and labels:
Assay in all cases: NCI tumour cell line growth inhibition, 48 h
786-0 renal = tested on: 786-0 renal
A549 NSCLC = tested on: A549 NSCLC
ACHN renal = tested on: ACHN renal
BT-549 breast = tested on: BT-549 breast
CCRF-CEM leukemia = tested on: CCRF-CEM leukemia
COLO 205 colon = tested on: COLO 205 colon
DU-145 prostate = tested on: DU-145 prostate
EKVX NSCLC = tested on: EKVX NSCLC
HCC-2998 colon = tested on: HCC-2998 colon
HCT-116 colon = tested on: HCT-116 colon
HCT-15 colon = tested on: HCT-15 colon
HL-60(TB) leukemia = tested on: HL-60(TB) leukemia
HOP-62 NSCLC = tested on: HOP-62 NSCLC
HOP-92 NSCLC = tested on: HOP-92 NSCLC
HS 578T breast = tested on: HS 578T breast
HT29 colon = tested on: HT29 colon
IGROV1 ovarian = tested on: IGROV1 ovarian
K-562 leukemia = tested on: K-562 leukemia
KM12 colon = tested on: KM12 colon
LOX IMVI melanoma = tested on: LOX IMVI melanoma
M14 melanoma = tested on: M14 melanoma
MALME-3M melanoma = tested on: MALME-3M melanoma
MCF7 breast = tested on: MCF7 breast
MDA-MB-231 breast = tested on: MDA-MB-231 breast
MDA-MB-435 = tested on: MDA-MB-435
MOLT-4 leukemia = tested on: MOLT-4 leukemia
NCI-H226 lung = tested on: NCI-H226 lung
NCI-H23 lung = tested on: NCI-H23 lung
NCI-H460 lung = tested on: NCI-H460 lung
NCI-H522 lung = tested on: NCI-H522 lung
NCI/ADR-RES ovarian = tested on: NCI/ADR-RES ovarian
OVCAR-3 ovarian = tested on: OVCAR-3 ovarian
OVCAR-5 ovarian = tested on: OVCAR-5 ovarian
OVCAR-8 ovarian = tested on: OVCAR-8 ovarian
PC-3 prostate = tested on: PC-3 prostate
RPMI-8226 leukemia = tested on: RPMI-8226 leukemia
RXF 393 renal = tested on: RXF 393 renal
SF-268 CNS = tested on: SF-268 CNS
SF-295 CNS = tested on: SF-295 CNS
SF-539 CNS = tested on: SF-539 CNS
SK-MEL-2 melanoma = tested on: SK-MEL-2 melanoma
SK-MEL-28 melanoma = tested on: SK-MEL-28 melanoma
SK-MEL-5 melanoma = tested on: SK-MEL-5 melanoma
SK-OV-3 ovarian = tested on: SK-OV-3 ovarian
SN12C renal = tested on: SN12C renal
SNB-19 CNS = tested on: SNB-19 CNS
SNB-75 CNS = tested on: SNB-75 CNS
SW-620 colon = tested on: SW-620 colon
T-47D breast = tested on: T-47D breast
TK-10 renal = tested on: TK-10 renal
U251 CNS = tested on: U251 CNS
UACC-257 melanoma = tested on: UACC-257 melanoma
UACC-62 melanoma = tested on: UACC-62 melanoma
UO-31 renal = tested on: UO-31 renal

O=C(/C=C/c1cccc(O)c1)c1cccc(-n2cc(-c3ccc4ccccc4c3)[nH]c2=O)c1
GI50 (786-0 renal): 1740 nM | TGI (786-0 renal): 3130 nM | GI50 (A549 NSCLC): 3380 nM | TGI (A549 NSCLC): 12700 nM | GI50 (ACHN renal): 1570 nM | TGI (ACHN renal): 3080 nM | GI50 (BT-549 breast): 1890 nM | TGI (BT-549 breast): 5140 nM | GI50 (CCRF-CEM leukemia): 2030 nM | TGI (CCRF-CEM leukemia): > 100000 nM | GI50 (COLO 205 colon): 2090 nM | TGI (COLO 205 colon): 4650 nM | GI50 (DU-145 prostate): 1750 nM | TGI (DU-145 prostate): 3650 nM | GI50 (EKVX NSCLC): 2640 nM | TGI (EKVX NSCLC): 13900 nM | GI50 (HCC-2998 colon): 2130 nM | TGI (HCC-2998 colon): 5110 nM | GI50 (HCT-116 colon): 407 nM | TGI (HCT-116 colon): 1450 nM | GI50 (HCT-15 colon): 1560 nM | TGI (HCT-15 colon): 4800 nM | GI50 (HL-60(TB) leukemia): 1010 nM | TGI (HL-60(TB) leukemia): 3210 nM | GI50 (HOP-62 NSCLC): 2260 nM | TGI (HOP-62 NSCLC): 4290 nM | GI50 (HOP-92 NSCLC): 518 nM | TGI (HOP-92 NSCLC): 8690 nM | GI50 (HS 578T breast): 2010 nM | TGI (HS 578T breast): 5900 nM | GI50 (HT29 colon): 1530 nM | TGI (HT29 colon): 2870 nM | GI50 (IGROV1 ovarian): 1330 nM | TGI (IGROV1 ovarian): 2790 nM | GI50 (K-562 leukemia): 1430 nM | TGI (K-562 leukemia): 4880 nM | GI50 (KM12 colon): 1210 nM | TGI (KM12 colon): 2450 nM | GI50 (LOX IMVI melanoma): 858 nM | TGI (LOX IMVI melanoma): 2080 nM | GI50 (M14 melanoma): 1490 nM | TGI (M14 melanoma): 3070 nM | GI50 (MALME-3M melanoma): 2080 nM | TGI (MALME-3M melanoma): 6370 nM | GI50 (MCF7 breast): 471 nM | TGI (MCF7 breast): 1830 nM | GI50 (MDA-MB-231 breast): 1660 nM | TGI (MDA-MB-231 breast): 4900 nM | GI50 (MDA-MB-435): 1710 nM | TGI (MDA-MB-435): 6310 nM | GI50 (MOLT-4 leukemia): 1270 nM | TGI (MOLT-4 leukemia): 5240 nM | GI50 (NCI-H226 lung): 2430 nM | TGI (NCI-H226 lung): 8910 nM | GI50 (NCI-H23 lung): 1520 nM | TGI (NCI-H23 lung): 3580 nM | GI50 (NCI-H460 lung): 1670 nM | TGI (NCI-H460 lung): 3190 nM | GI50 (NCI-H522 lung): 1290 nM | TGI (NCI-H522 lung): 2900 nM | GI50 (NCI/ADR-RES ovarian): 1550 nM | TGI (NCI/ADR-RES ovarian): 5830 nM | GI50 (OVCAR-3 ovarian): 1330 nM | TGI (OVCAR-3 ovarian): 2780 nM | GI50 (OVCAR-5 ovarian): 1890 nM | TGI (OVCAR-5 ovarian): 3600 nM | GI50 (OVCAR-8 ovarian): 2330 nM | TGI (OVCAR-8 ovarian): > 100000 nM | GI50 (PC-3 prostate): 1850 nM | TGI (PC-3 prostate): 7900 nM | GI50 (RPMI-8226 leukemia): 1670 nM | TGI (RPMI-8226 leukemia): 6910 nM | GI50 (RXF 393 renal): 1410 nM | TGI (RXF 393 renal): 3070 nM | GI50 (SF-268 CNS): 1730 nM | TGI (SF-268 CNS): 3550 nM | GI50 (SF-295 CNS): 1440 nM | TGI (SF-295 CNS): 3630 nM | GI50 (SF-539 CNS): 1550 nM | TGI (SF-539 CNS): 2890 nM | GI50 (SK-MEL-2 melanoma): 2310 nM | TGI (SK-MEL-2 melanoma): 7970 nM | GI50 (SK-MEL-28 melanoma): 3790 nM | TGI (SK-MEL-28 melanoma): 12400 nM | GI50 (SK-MEL-5 melanoma): 1160 nM | TGI (SK-MEL-5 melanoma): 2410 nM | GI50 (SK-OV-3 ovarian): 2150 nM | TGI (SK-OV-3 ovarian): 6730 nM | GI50 (SN12C renal): 1440 nM | TGI (SN12C renal): 3560 nM | GI50 (SNB-19 CNS): 1320 nM | TGI (SNB-19 CNS): 4130 nM | GI50 (SNB-75 CNS): 1880 nM | TGI (SNB-75 CNS): 5930 nM | GI50 (SW-620 colon): 223 nM | TGI (SW-620 colon): 605 nM | GI50 (T-47D breast): 1110 nM | TGI (T-47D breast): 3840 nM | GI50 (TK-10 renal): 3450 nM | TGI (TK-10 renal): 8530 nM | GI50 (U251 CNS): 1090 nM | TGI (U251 CNS): 2280 nM | GI50 (UACC-257 melanoma): 4130 nM | TGI (UACC-257 melanoma): 18400 nM | GI50 (UACC-62 melanoma): 1800 nM | TGI (UACC-62 melanoma): 4920 nM | GI50 (UO-31 renal): 1260 nM | TGI (UO-31 renal): 2640 nM
